Test [1] deals with purified human autoBACE-2 (Homo sapiens (Human), UniProt Q9Y5Z0). Description: BACE-2 Assay (BACE-HTRF assay). It is filed as biochemical. The conditions noted are these: Ki calculated from IC50 using the Cheng-Prusoff equation; read-out: BACE2 Ki. The protocol:
Inhibitor IC50s at purified human autoBACE-2 are determined in a time-resolved endpoint proteolysis assay that measures hydrolysis of the QSY7-[…]-Eu-amide FRET peptide substrate (BACE-HTRF assay). BACE-mediated hydrolysis of this peptide results in an increase in relative fluorescence (RFU) at 620 nm after excitation with 320 nm light Inhibitor compounds, prepared at 3× the desired final concentration in 1×BACE assay buffer (20 mM sodium acetate pH 5.0, 10% glycerol, 0.1% Brij-35) supplemented with 7.5% DMSO are pre-incubated with an equal volume of autoBACE-2 enzyme diluted in 1×BACE assay buffer (final enzyme concentration 1 nM) in black 384-well NUNC plates for 30 minutes at 30° C. […] DMSO is present at 5% final concentration in the assay. Following laser excitation of sample wells at 320 nm, the fluorescence signal at 620 nm is collected for 400 ms following a 50 μs delay on a RUBYstar HTRF plate reader (BMG Labtechnologies). Raw RFU data is normalized to maximum (1.0 nM BACE/DMSO) and minimum (no enzyme/DMSO) RFU values. IC50s are determined by nonlinear regression analysis (sigmoidal dose response, variable slope) of percent inhibition data with minimum and maximum values set to 0 and 100 percent respectively. Similar IC50s are obtained when using raw RFU data. The Ki values are calculated from the IC50 using the Cheng-Prusoff equation.

The target in test [2] is soluble human BACE1 catalytic domain (Homo sapiens (Human), UniProt P56817). Nature of the test: BACE1 HTRF FRET Assay. Type of test: biochemical. The note with it: Ki calculated from IC50 using the Cheng-Prusoff equation. The text has this:
A homogeneous time-resolved FRET assay can be used to determine IC50 values for inhibitors of the soluble human BACE1 catalytic domain. This assay monitors the increase of 620 nm fluorescence that resulted from BACE1 cleavage of an APPswedish APP^swe mutant peptide FRET substrate (QSY7-[…]-Europium-amide). This substrate contains an N-terminal QSY7 moiety that serves as a quencher of the C-terminal Europium fluorophore (620 nm Em). In the absence of enzyme activity, 620 nm fluorescence is low in the assay and increased linearly over 3 hours in the presence of uninhibited BACE1 enzyme Inhibition of BACE1 cleavage of the QSY7-APP^swe-Eu substrate by inhibitors is manifested as a suppression of 620 nm fluorescence.
Reactions are initiated by addition of 10 μl of 600 nM QSY7-APP^swe-Eu substrate (200 nM final) to give a final reaction volume of 30 μl in a 384 well Nunc HTRF plate. The reactions are incubated at 30° C. for 1.5 hours. The 620 nm fluorescence is then read on a Rubystar HTRF plate reader (BMG Labtechnologies) using a 50 millisecond delay followed by a 400 millisecond acquisition time window Inhibitor IC50 values are derived from non-linear regression analysis of concentration response curves.

Structures are written as SMILES.

Chain of soluble human BACE1 catalytic domain (P56817 75-416): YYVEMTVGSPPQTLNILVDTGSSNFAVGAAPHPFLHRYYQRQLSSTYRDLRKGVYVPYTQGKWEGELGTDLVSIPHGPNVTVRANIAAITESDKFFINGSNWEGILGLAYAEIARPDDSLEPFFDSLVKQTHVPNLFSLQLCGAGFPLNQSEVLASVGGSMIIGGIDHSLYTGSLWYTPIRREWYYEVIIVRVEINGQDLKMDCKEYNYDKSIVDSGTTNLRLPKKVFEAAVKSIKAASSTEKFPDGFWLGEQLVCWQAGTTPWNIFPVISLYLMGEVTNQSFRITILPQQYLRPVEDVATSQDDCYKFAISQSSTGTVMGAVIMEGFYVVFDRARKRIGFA
Chain of purified human autoBACE-2 (Q9Y5Z0 63-473 limits assumed): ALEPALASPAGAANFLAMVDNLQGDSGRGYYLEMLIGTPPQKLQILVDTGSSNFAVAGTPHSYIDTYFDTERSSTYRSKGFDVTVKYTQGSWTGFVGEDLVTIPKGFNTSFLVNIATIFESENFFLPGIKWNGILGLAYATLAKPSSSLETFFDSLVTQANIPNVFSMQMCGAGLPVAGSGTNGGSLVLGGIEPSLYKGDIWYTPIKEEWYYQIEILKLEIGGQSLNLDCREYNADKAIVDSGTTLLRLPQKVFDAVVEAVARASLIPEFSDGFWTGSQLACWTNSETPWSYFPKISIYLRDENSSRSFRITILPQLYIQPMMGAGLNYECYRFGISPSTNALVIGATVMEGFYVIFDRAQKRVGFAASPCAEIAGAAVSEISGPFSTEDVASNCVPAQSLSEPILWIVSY

In general, Ki refers to the dissociation constant of the complex between target and ligand, obtained from inhibition or displacement. Regarding `CN1C(=N)N[C@](C)(c2sc(-c3ccc(-c4ccccc4)[nH]3)cc2Cl)CS1(=O)=O` [Example 1], the Ki in test [1] is 0.00069 µM; in test [2], 0.0021 µM.

For the molecule `CN1C(=N)N[C@](C)(c2sc(-c3ncc(-c4ccccc4)[nH]3)cc2Cl)CS1(=O)=O` [Example 2], the Ki in test [1] was 0.0148 µM; in test [2] it was 0.112 µM.

Consider `CN1C(=N)N[C@](C)(c2sc(-c3ncc(-c4ccccn4)[nH]3)cc2Cl)CS1(=O)=O` [Example 3], for which the inhibition constant (Ki) is 0.0879 µM in test [1] and 0.47 µM in test [2].

As for `CN1C(=N)N[C@](C)(c2sc(-c3[nH]cnc3-c3ccccc3)cc2Cl)CS1(=O)=O` [Example 4], the Ki in test [1] was 3.12 µM; in test [2], 9.03 µM.

Turning to `CN1C(=N)N[C@](C)(c2sc(-c3cn(-c4ccccc4)nn3)cc2Cl)CS1(=O)=O` [Example 5], the Ki was 0.281 µM in test [1] and 1.99 µM in test [2].

As for `CN1C(=N)N[C@](C)(c2sc(-c3ccc(C4=NCCO4)[nH]3)cc2Cl)CS1(=O)=O` [Example 6], the results for the Ki in test [1] and in test [2] were 0.069 µM and 0.27 µM, respectively.

Regarding `CC1CN=C(c2ccc(-c3cc(Cl)c([C@]4(C)CS(=O)(=O)N(C)C(=N)N4)s3)[nH]2)O1` (some centres unmarked) [Example 7], the inhibition constant Ki in test [1] is 0.035 µM; in test [2], 0.087 µM.

With `CN1C(=N)N[C@](C)(c2sc(-c3ccc(-c4nnco4)[nH]3)cc2Cl)CS1(=O)=O` [Example 8], the results for the Ki in test [1] and in test [2] were 0.0109 µM and 0.0028 µM, respectively.

Consider `Cc1nnc(-c2ccc(-c3cc(Cl)c([C@]4(C)CS(=O)(=O)N(C)C(=N)N4)s3)[nH]2)o1` [Example 9], for which the Ki in test [1] was 0.00824 µM; in test [2] it was 0.0081 µM.

For the molecule `CN1C(=N)N[C@](C)(c2sc(-c3ccc(-c4nnc(C5CC5)o4)[nH]3)cc2Cl)CS1(=O)=O` [Example 10], the Ki was 0.0113 µM in test [1] and 0.087 µM in test [2].

For the molecule `CN1C(=N)N[C@](C)(c2cc(-c3ccc(-c4nnco4)[nH]3)ccc2F)CS1(=O)=O` [Example 11], the Ki in test [1] is 0.172 µM; in test [2], 0.045 µM.

`CN1C(=N)N[C@](C)(c2sc(-c3cc(-c4ccccc4)on3)cc2Cl)CS1(=O)=O` [Example 12]: the inhibitory constant (Ki) was 0.364 µM in test [1] and 1.17 µM in test [2].

As for `CN1C(=N)N[C@](C)(c2cc(-c3cc(-c4ccccc4)on3)ccc2F)CS1(=O)=O` [Example 13], the Ki in test [1] was 0.207 µM; in test [2], 0.91 µM.

As for `CN1C(=N)N[C@](C)(c2sc(-c3cc(-c4ccccc4)no3)cc2Cl)CS1(=O)=O` [Example 14], the inhibition constant Ki in test [1] was 0.144 µM; in test [2], 0.943 µM.

As to `CN1C(=N)N[C@](C)(c2cc(-c3cc(-c4ccccc4)on3)ccc2F)CS1(=O)=O` [Example 15], the figures for the Ki in test [1] and in test [2] were 0.0526 µM and 0.326 µM, respectively.

`CN1C(=N)N[C@](C)(c2sc(-c3nnc(-c4ccccn4)o3)cc2Cl)CS1(=O)=O` [Example 21]: the Ki in test [1] is 0.0584 µM; in test [2] it was 0.555 µM.

Regarding `CN1C(=N)N[C@](C)(c2sc(-c3nnc(-c4ccc(C#N)cc4)o3)cc2Cl)CS1(=O)=O` [Example 23], the Ki is 0.0449 µM in test [1] and 0.0346 µM in test [2].

Consider `CN1C(=N)N[C@](C)(c2cc(-c3nnc(-c4ccccc4)o3)ccc2F)CS1(=O)=O` [Example 24], for which the Ki in test [1] is 1.49 µM; in test [2] it was 9.87 µM.

Take `CN1C(=N)N[C@](C)(c2cc(-c3nnc(-c4ccc(Cl)cc4)o3)ccc2F)CS1(=O)=O` [Example 25]: the values for the Ki in test [1] and in test [2] were 0.595 µM and 2.59 µM, respectively.

For `CN1C(=N)N[C@](C)(c2cc(-c3nnc(-c4cnco4)o3)ccc2F)CS1(=O)=O` [Example 26], the Ki in test [1] was 0.801 µM; in test [2], 1.25 µM.

Take `CN1C(=N)N[C@](C)(c2sc(-c3nnc(-c4cnccn4)o3)cc2Cl)CS1(=O)=O` [Example 27]: the values for the Ki in test [1] and in test [2] were 0.284 µM and 0.683 µM, respectively.

Consider `CN1C(=N)N[C@](C)(c2sc(-c3nnc(-c4ccncc4)o3)cc2Cl)CS1(=O)=O` [Example 28], for which the Ki in test [1] was 0.332 µM; in test [2] it was 0.558 µM.

With `CN1C(=N)N[C@](C)(c2sc(-c3nnc(-c4cccnc4)o3)cc2Cl)CS1(=O)=O` [Example 29], the Ki in test [1] was 0.698 µM; in test [2] it was 1.05 µM.

Take `CN1C(=N)N[C@](C)(c2sc(-c3nnc(-c4cc5ccccn5n4)o3)cc2Cl)CS1(=O)=O` [Example 30]: the Ki in test [1] is 0.0968 µM; in test [2] it was 0.26 µM.

`CN1C(=N)N[C@](C)(c2sc(-c3nnc(-c4cccc(C#N)c4)o3)cc2Cl)CS1(=O)=O` [Example 31]: the Ki in test [1] was 1.24 µM; in test [2], 1.21 µM.

With `CN1C(=N)N[C@](C)(c2sc(-c3nnc(-c4nccs4)o3)cc2Cl)CS1(=O)=O` [Example 32], the Ki in test [1] is 0.0443 µM; in test [2], 0.402 µM.

Take `CN1C(=N)N[C@](C)(c2sc(-c3nnc(-c4cncs4)o3)cc2Cl)CS1(=O)=O` [Example 33]: the Ki in test [1] is 0.347 µM; in test [2], 0.863 µM.

Consider `CN1C(=N)N[C@](C)(c2sc(-c3nnc(-c4cccc5ccnn45)o3)cc2Cl)CS1(=O)=O` [Example 34], for which the Ki is 0.217 µM in test [1] and 0.561 µM in test [2].

In the case of `CN1C(=N)N[C@](C)(c2sc(-c3nnc(-c4cnn5ccccc45)o3)cc2Cl)CS1(=O)=O` [Example 35], the figures for the Ki in test [1] and in test [2] were 0.45 µM and 2.37 µM, respectively.

Consider `CN1C(=N)N[C@](C)(c2sc(-c3nnc(-c4ncccn4)o3)cc2Cl)CS1(=O)=O` [Example 36], for which the Ki in test [1] was 0.104 µM; in test [2], 0.778 µM.

As for `CN1C(=N)N[C@](C)(c2sc(-c3nnc(-c4cscn4)o3)cc2Cl)CS1(=O)=O` [Example 37], the Ki in test [1] was 0.0691 µM; in test [2], 0.662 µM.

Turning to `CN1C(=N)N[C@](C)(c2sc(-c3nnc(C4Cc5ccccc5C4)o3)cc2Cl)CS1(=O)=O` [Example 38], the Ki was 0.124 µM in test [1] and 0.255 µM in test [2].

With `CN1C(=N)N[C@](C)(c2sc(-c3nnc(-c4cncnc4)o3)cc2Cl)CS1(=O)=O` [Example 39], the figures for the Ki in test [1] and in test [2] were 1.66 µM and 5.4 µM, respectively.

Consider `CN1C(=N)N[C@](C)(c2sc(-c3nnc(-c4cnco4)o3)cc2Cl)CS1(=O)=O` [Example 40], for which the Ki was 0.142 µM in test [1] and 0.25 µM in test [2].

Turning to `CN1C(=N)N[C@](C)(c2sc(-c3nnc(-c4ncco4)o3)cc2Cl)CS1(=O)=O` [Example 41], the values for the Ki in test [1] and in test [2] were 0.0317 µM and 0.441 µM, respectively.

As to `CN1C(=N)N[C@](C)(c2sc(-c3nnc(-c4cocn4)o3)cc2Cl)CS1(=O)=O` [Example 42], the inhibition constant Ki is 0.143 µM in test [1] and 0.925 µM in test [2].

For the molecule `CN1C(=N)N[C@](C)(c2sc(-c3nnc(-c4ccncn4)o3)cc2Cl)CS1(=O)=O` [Example 43], the Ki was 0.305 µM in test [1] and 0.823 µM in test [2].

`CN1C(=N)N[C@](C)(c2sc(-c3nnc(-c4ccon4)o3)cc2Cl)CS1(=O)=O` [Example 44]: the Ki was 0.157 µM in test [1] and 1.34 µM in test [2].

With `CN1C(=N)N[C@](C)(c2sc(-c3nnc(-c4cnn(C)c4)o3)cc2Cl)CS1(=O)=O` [Example 45], the figures for the Ki in test [1] and in test [2] were 0.226 µM and 0.407 µM, respectively.

On to `CN1C(=N)N[C@](C)(c2sc(-c3nnc(-c4ccn(C)n4)o3)cc2Cl)CS1(=O)=O` [Example 46], for which the Ki is 0.13 µM in test [1] and 1.14 µM in test [2].

Source of the values: US9422277B2, “Tricyclic substituted thiadiazine dioxide compounds as BACE inhibitors, compositions and their use” (Merck Sharp & Dohme Corp., priority 2012, dated 2016).
